Usually IC50 stands for the concentration that gives 50% inhibition.

Where only a bound is given, the exact number is not on record here.

Consider 19 compounds from patent US20100076015A1, “Aminopyridine Derivatives” (VANTIA LIMITED, priority 2008, published 2010).

Holding throughout (type): biochemical
The target of one test is T1, Human KLK1 (Homo sapiens, UniProt P06870).
T1 construct: purchased Callbiochem (Calbiochem)
Description: Determination of the IC50 for KLK1 (fluorogenic substrate H-DVal-Leu-Arg-AFC). To be noted: 37° C. The method, boiled down: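 Test compound at various concentrations was incubated with human KLK1 and the fluorogenic substrate H-DVal-Leu-Arg-AFC at 37° C. Absorbance change at 410 nm gave the initial reaction rate, from which IC50 was obtained.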

Another test addresses trypsin. As to the kind of experiment: Enzyme selectivity: trypsin (chromogenic substrate S-2222). To be noted: human enzyme, chromogenic substrate S-2222, 37° C. The protocol: (§1) Determination of Enzyme Selectivity
(§2) Selected compounds were further screened for inhibitory activity against other trypsin-like serine proteases using the appropriate enzyme and chromogenic substrate (Chromogenix AB). The activity against the following human enzymes was tested (substrate in brackets):—plasma kallikrein (S-2302), thrombin (S-2238), plasmin (S-2390) and trypsin (S-2222). The enzyme was incubated at 37° C. with the chromogenic substrate. Residual enzyme activity (initial rate of reaction) was determined by measuring the change in optical absorbance at 405 nm.

The target of another test is plasma kallikrein (Homo sapiens, UniProt P03952). Description: Enzyme selectivity: plasma kallikrein (chromogenic substrate S-2302). To be noted: chromogenic substrate S-2302, 37° C. The protocol: as §1, §2
For a further test, the target named is plasmin (Homo sapiens, UniProt P00747). Description: Enzyme selectivity: plasmin (chromogenic substrate S-2390). The settings on record: chromogenic substrate S-2390, 37° C. How it is done:
as §1, §2

The target of another test is thrombin (Homo sapiens, UniProt P00734). Description: Enzyme selectivity: thrombin (chromogenic substrate S-2238). To be noted: chromogenic substrate S-2238, 37° C. The protocol: as §1, §2

T1 sequence (P06870 25-262): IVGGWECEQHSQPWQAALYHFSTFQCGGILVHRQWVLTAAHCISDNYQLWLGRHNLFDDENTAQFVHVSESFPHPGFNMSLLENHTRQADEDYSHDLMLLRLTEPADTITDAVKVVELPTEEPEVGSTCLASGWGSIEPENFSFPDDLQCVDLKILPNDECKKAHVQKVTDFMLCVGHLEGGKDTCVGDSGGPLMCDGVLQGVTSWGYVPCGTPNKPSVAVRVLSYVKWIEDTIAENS
Sequence of plasmin (P00747 581-810 limits assumed): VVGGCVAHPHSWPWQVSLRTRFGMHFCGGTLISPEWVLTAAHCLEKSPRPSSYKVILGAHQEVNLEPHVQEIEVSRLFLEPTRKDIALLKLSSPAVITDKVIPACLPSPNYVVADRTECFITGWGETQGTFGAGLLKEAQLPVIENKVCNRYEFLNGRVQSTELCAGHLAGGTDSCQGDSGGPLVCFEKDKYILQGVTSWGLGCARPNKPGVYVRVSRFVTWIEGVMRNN
Sequence of plasmin (P00747 97-580 partner limits assumed): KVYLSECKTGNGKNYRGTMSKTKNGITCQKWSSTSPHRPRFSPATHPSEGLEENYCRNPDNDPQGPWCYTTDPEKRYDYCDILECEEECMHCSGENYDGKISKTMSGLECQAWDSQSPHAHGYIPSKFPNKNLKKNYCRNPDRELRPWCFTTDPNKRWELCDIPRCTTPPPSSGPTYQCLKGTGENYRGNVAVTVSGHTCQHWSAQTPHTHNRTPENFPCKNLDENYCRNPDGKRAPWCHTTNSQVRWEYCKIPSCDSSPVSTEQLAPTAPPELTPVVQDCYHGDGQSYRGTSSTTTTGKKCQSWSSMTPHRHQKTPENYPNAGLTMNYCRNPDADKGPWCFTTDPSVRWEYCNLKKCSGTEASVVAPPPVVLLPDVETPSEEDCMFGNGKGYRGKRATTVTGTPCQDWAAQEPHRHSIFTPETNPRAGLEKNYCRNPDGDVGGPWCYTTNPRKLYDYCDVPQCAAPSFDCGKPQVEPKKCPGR
Sequence of plasma kallikrein (P03952 20-638): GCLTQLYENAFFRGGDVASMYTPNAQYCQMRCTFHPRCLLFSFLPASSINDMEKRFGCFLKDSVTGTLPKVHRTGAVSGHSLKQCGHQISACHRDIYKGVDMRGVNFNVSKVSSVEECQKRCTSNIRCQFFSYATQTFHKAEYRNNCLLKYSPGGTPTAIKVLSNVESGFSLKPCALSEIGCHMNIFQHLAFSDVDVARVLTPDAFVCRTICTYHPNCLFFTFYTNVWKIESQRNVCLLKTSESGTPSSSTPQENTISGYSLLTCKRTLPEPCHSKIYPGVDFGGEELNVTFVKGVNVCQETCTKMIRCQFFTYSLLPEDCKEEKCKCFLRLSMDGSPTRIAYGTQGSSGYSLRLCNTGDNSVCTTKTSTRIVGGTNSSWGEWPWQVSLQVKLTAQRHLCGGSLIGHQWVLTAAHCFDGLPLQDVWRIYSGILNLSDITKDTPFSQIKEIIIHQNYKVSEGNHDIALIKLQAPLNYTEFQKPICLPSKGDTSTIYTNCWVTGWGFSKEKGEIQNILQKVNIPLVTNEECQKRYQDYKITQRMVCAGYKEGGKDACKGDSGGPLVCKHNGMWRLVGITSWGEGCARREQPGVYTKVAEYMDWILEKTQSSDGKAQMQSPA

As to `Cc1cc(C)c(C(=O)N[C@@H](Cc2cccc(Cl)c2)C(=O)NCc2ccc(N)nc2)[nH]1` [Example 235, 3,5-Dimethyl-1H-pyrrole-2-carboxylic acid [(S)-1-[(6-amino-pyridin-3-ylmethyl)-carbamoyl]-2-(3-chloro-phenyl)-ethyl]-amide], the IC50 against Human KLK1 is 0.0024 µM; on trypsin, over 10 µM; against plasma kallikrein it was over 10 µM; at plasmin, over 10 µM; at thrombin, over 10 µM.

As for `CCN(CC)[C@@H](C)C(=O)N[C@@H](CC1CCCCC1)C(=O)NCc1ccc(N)nc1` [Example 390, (S)—N-{(S)-1-[(6-Amino-pyridin-3-ylmethyl)-carbamoyl]-2-cyclohexyl-ethyl}-2-diethylamino-propionamide], the IC50 is 0.0027 µM on Human KLK1; over 10 µM against trypsin; over 10 µM against plasma kallikrein; over 10 µM at plasmin; over 10 µM on thrombin.

Turning to `CCC(C)[C@@H](N)C(=O)N[C@@H](Cc1cccc(C(F)(F)F)c1)C(=O)NCc1ccc(N)nc1` (stereo partly drawn) [Example 30, (R)-2-Amino-3-methyl-pentanoic acid [(S)-1-[(6-amino-pyridin-3-ylmethyl)-carbamoyl]-2-(3-trifluoromethyl-phenyl)-ethyl]-amide], the IC50 is 0.0011 µM against Human KLK1; over 10 µM at trypsin; over 10 µM against plasma kallikrein; over 10 µM against plasmin; over 10 µM on thrombin.

Turning to `CN1CCC[C@@H]1C(=O)N[C@@H](Cc1ccc(Cl)c(Cl)c1)C(=O)NCc1ccc(N)nc1` [Example 90, (R)-1-Methyl-pyrrolidine-2-carboxylic acid [(S)-1-[(6-amino-pyridin-3-ylmethyl)-carbamoyl]-2-(3,4-dichloro-phenyl)-ethyl]-amide], the IC50 on Human KLK1 is 0.00086 µM; against trypsin it was over 10 µM; at plasma kallikrein, over 10 µM; at plasmin it was over 10 µM; on thrombin, over 10 µM.

With `Cc1cc(C)c(C(=O)N[C@@H](Cc2cccc(C(F)(F)F)c2)C(=O)NCc2ccc(N)nc2)[nH]1` [Example 232, 3,5-Dimethyl-1H-pyrrole-2-carboxylic acid [(S)-1-[(6-amino-pyridin-3-ylmethyl)-carbamoyl]-2-(3-trifluoromethyl-phenyl)-ethyl]-amide], the IC50 is 0.0015 µM against Human KLK1; over 10 µM on trypsin; over 10 µM on plasma kallikrein; over 10 µM on plasmin; over 10 µM against thrombin.

For `CCN1CCC[C@@H]1C(=O)N[C@@H](Cc1ccc(F)c(F)c1)C(=O)NCc1ccc(N)nc1` [Example 131, (R)-1-Ethyl-pyrrolidine-2-carboxylic acid [(S)-1-[(6-amino-pyridin-3-ylmethyl)-carbamoyl]-2-(3,4-difluoro-phenyl)-ethyl]-amide], the IC50 was 0.00054 µM against Human KLK1; over 10 µM on trypsin; over 10 µM against plasma kallikrein; over 10 µM against plasmin; over 10 µM at thrombin.

For the compound `Cc1cc(C)c(C(=O)N[C@@H](Cc2ccc(F)cc2)C(=O)NCc2ccc(N)nc2)[nH]1` [Example 242, 3,5-Dimethyl-1H-pyrrole-2-carboxylic acid [(S)-1-[(6-amino-pyridin-3-ylmethyl)-carbamoyl]-2-(4-fluoro-phenyl)-ethyl]-amide], the IC50 was 0.0044 µM on Human KLK1; over 10 µM on trypsin; over 10 µM against plasma kallikrein; over 10 µM at plasmin; over 10 µM at thrombin.

For the compound `CCC(C)[C@@H](N)C(=O)N[C@@H](Cc1cccc(C)c1)C(=O)NCc1ccc(N)nc1` (stereo partly drawn) [Example 27, (R)-2-Amino-3-methyl-pentanoic acid {(S)-1-[(6-amino-pyridin-3-ylmethyl)-carbamoyl]-2-m-tolyl-ethyl}-amide], the IC50 against Human KLK1 is 0.0025 µM; at trypsin, over 10 µM; on plasma kallikrein, over 10 µM; against plasmin it was over 10 µM; on thrombin it was over 10 µM.

As for `CN1CCCC[C@@H]1C(=O)N[C@@H](Cc1ccc(F)cc1)C(=O)NCc1ccc(N)nc1` [Example 145, (R)-1-Methyl-piperidine-2-carboxylic acid [(S)-1-[(6-amino-pyridin-3-ylmethyl)-carbamoyl]-2-(4-fluoro-phenyl)-ethyl]-amide], the concentration for half-maximal inhibition (IC50) on Human KLK1 is 0.0105 µM; against trypsin it was over 10 µM; at plasma kallikrein it was over 10 µM; on plasmin, over 10 µM; on thrombin, over 10 µM.

On to `Nc1ccc(CNC(=O)[C@H](Cc2cccc3ccccc23)NC(=O)c2ccc[nH]2)cn1` [Example 228, 1H-Pyrrole-2-carboxylic acid {(S)-1-[(6-amino-pyridin-3-ylmethyl)-carbamoyl]-2-naphthalen-1-yl-ethyl}-amide], for which the IC50 on Human KLK1 was 0.0321 µM; against trypsin, over 10 µM; against plasma kallikrein it was over 10 µM; at plasmin, over 10 µM; at thrombin, over 10 µM.

`Cc1cc[nH]c1C(=O)N[C@@H](Cc1ccc(F)c(F)c1)C(=O)NCc1ccc(N)nc1` [Example 226, 3-Methyl-1H-pyrrole-2-carboxylic acid [(S)-1-[(6-amino-pyridin-3-ylmethyl)-carbamoyl]-2-(3,4-difluoro-phenyl)-ethyl]-amide]: the IC50 against Human KLK1 was 0.0101 µM; at trypsin it was over 10 µM; against plasma kallikrein, over 10 µM; on plasmin, over 10 µM; against thrombin, over 10 µM.

Take `Cc1cc(C)c(C(=O)N[C@@H](Cc2cccc(C(F)(F)F)c2)C(=O)NCc2ccc(N)nc2C)[nH]1` [Example 277, 3,5-Dimethyl-1H-pyrrole-2-carboxylic acid [(S)-1-[(6-amino-2-methyl-pyridin-3-ylmethyl)-carbamoyl]-2-(3-trifluoromethyl-phenyl)-ethyl]-amide]: the IC50 was 0.0009 µM on Human KLK1; over 10 µM against trypsin; over 10 µM against plasma kallikrein; over 10 µM against plasmin; over 10 µM against thrombin.

As for `Cc1cc(C)c(C(=O)N[C@@H](Cc2ccc(F)c(F)c2)C(=O)NCc2ccc(N)nc2)[nH]1` [Example 243, 3,5-Dimethyl-1H-pyrrole-2-carboxylic acid [(S)-1-[(6-amino-pyridin-3-ylmethyl)-carbamoyl]-2-(3,4-difluoro-phenyl)-ethyl]-amide], the IC50 is 0.0034 µM on Human KLK1; over 10 µM on trypsin; over 10 µM on plasma kallikrein; over 10 µM against plasmin; over 10 µM against thrombin.

On to `CCC(C)[C@@H](N)C(=O)N[C@@H](Cc1cccc2ccccc12)C(=O)NCc1ccc(N)nc1` (stereo partly drawn) [Example 1, (R)-2-Amino-3-methyl-pentanoic acid {(S)-1-[(6-amino-pyridin-3-ylmethyl)-carbamoyl]-2-naphthalen-1-yl-ethyl}-amide], for which the IC50 at Human KLK1 is 0.00096 µM; on trypsin it was over 10 µM; on plasma kallikrein, over 10 µM; at plasmin, over 10 µM; against thrombin, over 10 µM.

Consider `CN1CCC[C@@H]1C(=O)N[C@@H](Cc1ccc(F)c(F)c1)C(=O)NCc1ccc(N)nc1` [Example 5, (R)-1-Methyl-pyrrolidine-2-carboxylic acid [(S)-1-[(6-amino-pyridin-3-ylmethyl)-carbamoyl]-2-(3,4-difluoro-phenyl)-ethyl]-amide], for which the IC50 at Human KLK1 is 0.0013 µM; on trypsin, over 10 µM; against plasma kallikrein it was over 10 µM; against plasmin, over 10 µM; against thrombin it was over 10 µM.

Turning to `CC(C)N(C)[C@@H](C)C(=O)N(C)[C@@H](CC1CCCCC1)C(=O)NCc1ccc(N)nc1` [Example 437, (S)—N-{(S)-1-[(6-Amino-pyridin-3-ylmethyl)-carbamoyl]-2-cyclohexyl-ethyl}-2-(isopropyl-methyl-amino)-N-methyl-propionamide], the IC50 on Human KLK1 was 0.0042 µM; at trypsin, over 10 µM; against plasma kallikrein it was over 10 µM; at plasmin, over 10 µM; against thrombin, over 10 µM.

As to `CC(C)N(CC(=O)N[C@@H](Cc1ccc(F)c(F)c1)C(=O)NCc1ccc(N)nc1)C(C)C` [Example 157, (S)—N-(6-Amino-pyridin-3-ylmethyl)-3-(3,4-difluoro-phenyl)-2-(2-diisopropylamino-acetylamino)-propionamide], the IC50 against Human KLK1 was 0.123 µM; against trypsin it was over 10 µM; against plasma kallikrein, over 10 µM; at plasmin, over 10 µM; on thrombin, over 10 µM.

Consider `CC1CCCC(C)N1CC(=O)N[C@@H](Cc1ccc(F)c(F)c1)C(=O)NCc1ccc(N)nc1` (stereo partly drawn) [Example 365, (S)—N-(6-Amino-pyridin-3-ylmethyl)-3-(3,4-difluoro-phenyl)-2-[2-(2,6-dimethyl-piperidin-1-yl)-acetylamino]-propionamide], for which the IC50 was 0.0025 µM at Human KLK1; over 10 µM against trypsin; over 10 µM against plasma kallikrein; over 10 µM against plasmin; over 10 µM on thrombin.

Consider `Nc1ccc(CNC(=O)[C@H](CC2CCCC3CCCCC32)NC(=O)[C@H](N)Cc2ccc(Cl)cc2)cn1` (stereo partly drawn) [Example 13, (R)-2-Amino-N-[(S)-1-[(6-amino-pyridin-3-ylmethyl)carbamoyl]-2-(decahydro-naphthalen-1-yl)-ethyl]-3-(4-chloro-phenyl)-propionamide], for which the IC50 on Human KLK1 is 0.0098 µM; against trypsin, over 10 µM; against plasma kallikrein it was over 10 µM; at plasmin, over 10 µM; on thrombin, over 10 µM.
